# Literature values in US20080103122A1, “PHARMACEUTICAL COMBINATIONS FOR LIPID MANAGEMENT AND IN THE TREATMENT OF ATHEROSCLEROSIS AND HEPATIC STEATOSIS” (Schering Corporation, priority 2006, published 2008).
# System: atherosclerotic plaques
# Settings: mice; Zaiss et al., Circulation 100 (18 Suppl. I): 255 (1999)
compound,measurement,value
"Cc1cc(C)c2c3ccccc3n(Cc3ccc([C@@H](C(=O)N[C@@H](CO)c4ccccc4)C4CCCC4)cc3)c2n1 [implitiapide, 2,2-(S)-cyclopentyl-2-{[4-(2,4-dimethyl-alpha-carbolin-9-yl)methyl]phenyl}acetic acid-(R)-phenyl-glycinol-amide]",formation of atherosclerotic plaques,prevents the formation of atherosclerotic plaques
